One may read the inhibition as the relative decrease from the control value, in per cent. One may read the pIC50 as the IC50 on a negative log10 scale, so that one unit is a factor of ten.

Consider 31 molecules from patent US9868737B2, “Pyridino[1,2-A]pyrimidone analogue used as MTOR/P13K inhibitor” (CISEN PHARMACEUTICAL CO., LTD., priority 2014, dated 2018).

In the assay the test system is MCF-7 cells. Kind of assay: In vitro test of cell activity (MCF-7 cells, insulin stimulation, ELISA-One fluorescence). It is filed as cell-based. To be noted: Homo sapiens, MCF7, MCF-7 cells; for inhibition at 0.5 µM: conc. 0.5 μM; for inhibition at 0.25 µM: conc. 0.25 μM. Put shortly:
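MCF-7 cells, seeded at 2.5×10^4/well in 10% FBS medium, were given compound in serum-free medium for 2 h at one concentration (screen) or a series (IC50). Insulin stimulation followed at […] final for 30 min; lysates assayed by ELISA-One sandwich immunoassay with fluorescence read-out.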
(In general: ELISA stands for enzyme-linked immunosorbent assay.)

Structures are written as SMILES. pIC50: −log10 of the molar value. Like-named read-outs stand apart in the source and are kept apart here.

In the case of `COc1ncc(-c2cn3c(=O)ccnc3cc2C)cc1NS(=O)(=O)c1cccc(F)c1` [compound 124], the inhibition at 0.5 µM runs as follows: (read-out: % inhibition AKT) -48%; (read-out: % inhibition p70s6k) 2.8%.
As to `COc1ncc(-c2cn3c(=O)ccnc3cc2C)cc1NS(=O)(=O)c1c(F)cccc1F` [compound 125], the inhibition at 0.5 µM is, setting by setting: (read-out: % inhibition AKT) 23.5%; (read-out: % inhibition p70s6k) 5%.
Regarding `COc1ncc(-c2cn3c(=O)ccnc3cc2C)cc1NS(=O)(=O)c1ccc(F)cc1C` [compound 126], the inhibition at 0.5 µM (read-out: % inhibition AKT) is -12.7% and the inhibition at 0.5 µM (read-out: % inhibition p70s6k) was determined as 2.4%.
The matching figures for `COc1ncc(-c2cn3c(=O)ccnc3cc2C)cc1NS(=O)(=O)c1ccc(F)cc1Cl` [compound 128]: -1.1% and 0.4%.
Turning to `COc1ncc(-c2cn3c(=O)ccnc3cc2C)cc1NS(=O)(=O)c1ccc(C#N)cc1` [compound 129], the inhibition at 0.5 µM is -24.2% (read-out: % inhibition AKT) and 1.2% (read-out: % inhibition p70s6k).
On to `COc1ncc(-c2cn3c(=O)ccnc3cc2C)cc1NS(=O)(=O)c1ccc(C(F)(F)F)cc1` [compound 130], for which the inhibition at 0.5 µM (read-out: % inhibition AKT) turned out to be 2.3% and the inhibition at 0.5 µM (read-out: % inhibition p70s6k) amounted to 2.6%.
`COc1ncc(-c2cn3c(=O)ccnc3cc2C)cc1NS(=O)(=O)c1cc(F)ccc1F` [compound 131]: the inhibition at 0.5 µM runs as follows: (read-out: % inhibition AKT) -27%; (read-out: % inhibition p70s6k) 4.5%.
Regarding `COc1nnc(-c2ccc3ncc(Cl)c(=O)n3c2)cc1NS(=O)(=O)c1ccc(F)cc1F` [compound 133], the pIC50 (read-out: IC50 p-AKT) was under 6.60.
As to `COc1ncc(-c2ccc3ncc(Cl)c(=O)n3c2)cc1NS(=O)(=O)c1ccc(F)cc1C` [compound 134], the inhibition at 0.5 µM is, setting by setting: (read-out: % inhibition AKT) 94.9%; (read-out: % inhibition p70s6k) 87.7%. The pIC50 reads like this: (read-out: IC50 p-AKT) at least 7.30; (read-out: IC50 p-p70S6K) 7.00 to 7.30.
The corresponding values for `COc1ncc(-c2ccc3ncc(Cl)c(=O)n3c2)cc1NS(=O)(=O)c1ccccc1Cl` [compound 136] are 95.5%, 87.2%, at least 7.30 and 7.00 to 7.30.
The corresponding values for `COc1ncc(-c2ccc3ncc(Cl)c(=O)n3c2)cc1NS(=O)(=O)c1ccccc1F` [compound 137] are 93.3%, 87.1%, at least 7.30 and 6.60 to 7.00.
As for `COc1ncc(-c2ccc3ncc(Cl)c(=O)n3c2)cc1NS(=O)(=O)c1cccc(F)c1` [compound 138], the inhibition at 0.5 µM runs as follows: (read-out: % inhibition AKT) 68.9%; (read-out: % inhibition p70s6k) 73.8%.
`COc1ncc(-c2ccc3ncc(Cl)c(=O)n3c2)cc1NS(=O)(=O)c1cc(F)ccc1F` [compound 139]: the inhibition at 0.5 µM is, setting by setting: (read-out: % inhibition AKT) 93.7%; (read-out: % inhibition p70s6k) 88.5%. Also, the pIC50 was at least 7.30 (read-out: IC50 p-AKT) and 7.00 to 7.30 (read-out: IC50 p-p70S6K).
The corresponding values for `COc1ncc(-c2ccc3ncc(Cl)c(=O)n3c2)cc1NS(=O)(=O)c1cccc(C)c1` [compound 140] are 94.8%, 90.5%, at least 7.30 and 7.00 to 7.30.
As to `COc1ncc(-c2ccc3ncc(Cl)c(=O)n3c2)cc1NS(=O)(=O)c1cccc(Cl)c1` [compound 141], the inhibition at 0.5 µM amounted to 96.1% (read-out: % inhibition AKT) and 88.1% (read-out: % inhibition p70s6k). Also, the pIC50 runs as follows: (read-out: IC50 p-AKT) at least 7.30; (read-out: IC50 p-p70S6K) at least 7.30.
With `COc1ncc(-c2ccc3ncc(Cl)c(=O)n3c2)cc1NS(=O)(=O)c1ccccc1` [compound 142], the inhibition at 0.5 µM is, setting by setting: (read-out: % inhibition AKT) 94.8%; (read-out: % inhibition p70s6k) 90.8%. In addition, the pIC50 runs as follows: (read-out: IC50 p-AKT) at least 7.30; (read-out: IC50 p-p70S6K) 7.00 to 7.30.
As to `COc1ncc(-c2ccc3ncc(Cl)c(=O)n3c2)cc1NS(=O)(=O)c1sccc1C` [compound 143], the inhibition at 0.5 µM is, setting by setting: (read-out: % inhibition AKT) 95.7%; (read-out: % inhibition p70s6k) 87.7%. Further, the pIC50 (read-out: IC50 p-AKT) is at least 7.30 and the pIC50 (read-out: IC50 p-p70S6K) is at least 7.30.
On to `COc1ncc(-c2ccc3ncc(Cl)c(=O)n3c2)cc1NS(=O)(=O)c1ccc(F)c(F)c1` [compound 145], for which the inhibition at 0.5 µM was found to be 94.9% (read-out: % inhibition AKT) and 90.5% (read-out: % inhibition p70s6k). The negative logarithm of the IC50 (pIC50) is at least 7.30 (read-out: IC50 p-AKT) and 6.60 to 7.00 (read-out: IC50 p-p70S6K).
For the molecule `COc1ncc(-c2ccc3ncc(Cl)c(=O)n3c2)cc1NS(=O)(=O)c1ccc(F)cc1` [compound 146], the inhibition at 0.25 µM was 77.6% (read-out: % inhibition AKT) and 83.7% (read-out: % inhibition p70s6k).
`COc1ncc(-c2ccc3ncc(Cl)c(=O)n3c2)cc1NS(=O)(=O)c1cc(F)cc(F)c1` [compound 147]: the inhibition at 0.25 µM (read-out: % inhibition AKT) came out at 80.3% and the inhibition at 0.25 µM (read-out: % inhibition p70s6k) worked out at 81.3%. For the same molecule, the pIC50 is 7.00 to 7.30 (read-out: IC50 p-AKT) and 7.00 to 7.30 (read-out: IC50 p-p70S6K).
Take `COc1ncc(-c2ccc3ncc(Cl)c(=O)n3c2)cc1NS(=O)(=O)c1c(F)cccc1F` [compound 148]: the inhibition at 0.25 µM is, setting by setting: (read-out: % inhibition AKT) 88.9%; (read-out: % inhibition p70s6k) 86.3%. Besides, the pIC50 is 7.00 to 7.30 (read-out: IC50 p-AKT) and 7.00 to 7.30 (read-out: IC50 p-p70S6K).
For `COc1ncc(-c2ccc3ncc(Cl)c(=O)n3c2)cc1NS(=O)(=O)c1ccc(C)cc1Cl` [compound 152], the inhibition at 0.25 µM by setting is: (read-out: % inhibition AKT) 94%; (read-out: % inhibition p70s6k) 83.9%. For the same molecule, the pIC50 (read-out: IC50 p-AKT) is at least 7.30 and the pIC50 (read-out: IC50 p-p70S6K) is at least 7.30.
As for `COc1ncc(-c2ccc3ncc(Cl)c(=O)n3c2)cc1NS(=O)(=O)c1cnc(C)n1C` [compound 154], the inhibition at 0.25 µM by setting is: (read-out: % inhibition AKT) 85.4%; (read-out: % inhibition p70s6k) 92.6%. The pIC50 by setting is: (read-out: IC50 p-AKT) 6.60 to 7.00; (read-out: IC50 p-p70S6K) 7.00 to 7.30.
Regarding `COc1ncc(-c2ccc3ncc(Cl)c(=O)n3c2)cc1NS(=O)(=O)c1cnc(C)[nH]1` [compound 155], the inhibition at 0.25 µM by setting is: (read-out: % inhibition AKT) 29.8%; (read-out: % inhibition p70s6k) 42.2%.
For `COc1ncc(-c2ccc3ncc(Cl)c(=O)n3c2)cc1NS(=O)(=O)c1cnc(C)s1` [compound 156], the inhibition at 0.25 µM came out at 77.9% (read-out: % inhibition AKT) and 74.1% (read-out: % inhibition p70s6k). The pIC50 reads like this: (read-out: IC50 p-AKT) 7.00 to 7.30; (read-out: IC50 p-p70S6K) 6.60 to 7.00.
As for `COc1ncc(-c2ccc3ncc(Cl)c(=O)n3c2)cc1NS(=O)(=O)c1nc(C)c(C)s1` [compound 157], the inhibition at 0.25 µM reads like this: (read-out: % inhibition AKT) 79.2%; (read-out: % inhibition p70s6k) 90.8%. In addition, the negative logarithm of the IC50 (pIC50) is, setting by setting: (read-out: IC50 p-AKT) at least 7.30; (read-out: IC50 p-p70S6K) 7.00 to 7.30.
With `COc1ncc(-c2ccc3ncc(Cl)c(=O)n3c2)cc1NS(=O)(=O)c1nnc(C)s1` [compound 158], the inhibition at 0.25 µM by setting is: (read-out: % inhibition AKT) -21.8%; (read-out: % inhibition p70s6k) 5.1%.
In the case of `COc1ncc(-c2ccc3ncc(Cl)c(=O)n3c2)cc1NS(=O)(=O)c1ncccc1Cl` [compound 159], the inhibition at 0.25 µM by setting is: (read-out: % inhibition AKT) 68.6%; (read-out: % inhibition p70s6k) 84.8%. The pIC50 (read-out: IC50 p-AKT) is 6.60 to 7.00 and the pIC50 (read-out: IC50 p-p70S6K) is 6.60 to 7.00.
As to `COc1ncc(-c2ccc3ncc(Cl)c(=O)n3c2)cc1NS(=O)(=O)c1cnc(Cl)s1` [compound 160], the inhibition at 0.25 µM reads like this: (read-out: % inhibition AKT) 61.9%; (read-out: % inhibition p70s6k) 71.6%.
Take `COc1ncc(-c2ccc3ncc(Cl)c(=O)n3c2)cc1NS(=O)(=O)c1cnc(N)s1` [compound 161]: the inhibition at 0.25 µM runs as follows: (read-out: % inhibition AKT) 79.5%; (read-out: % inhibition p70s6k) 41%. For the same molecule, the pIC50 is, setting by setting: (read-out: IC50 p-AKT) 7.00 to 7.30; (read-out: IC50 p-p70S6K) under 6.60.
The matching figures for `COc1ncc(-c2ccc3ncc(Cl)c(=O)n3c2)cc1NS(=O)(=O)c1ncc(C)s1` [compound 162]: 77.8%, 64.9%, 7.00 to 7.30 and 6.60 to 7.00.
